BindingDB's records for doi:10.1016/j.bmc.2020.115644 (Umass Medical School, 2020)
Counter-ions that a name gives are not always drawn.

Legend:
NAD(+) hydrolase SARM1 [1] = target: T1, NAD(+) hydrolase SARM1 (Homo sapiens, UniProt Q6SZW1); assay: Noncompetitive inhibition of recombinant human SARM1 TIR domain (561 to 724 residues) expressed in Escherichia coli C43 (DE3) cells lysates assessed as EADPR formation using ENAD as substrate preincubated for 20 mins followed by ENAD addition and measured at 15 sec interval for 1 hr
T1 sequence (Q6SZW1 whole entry): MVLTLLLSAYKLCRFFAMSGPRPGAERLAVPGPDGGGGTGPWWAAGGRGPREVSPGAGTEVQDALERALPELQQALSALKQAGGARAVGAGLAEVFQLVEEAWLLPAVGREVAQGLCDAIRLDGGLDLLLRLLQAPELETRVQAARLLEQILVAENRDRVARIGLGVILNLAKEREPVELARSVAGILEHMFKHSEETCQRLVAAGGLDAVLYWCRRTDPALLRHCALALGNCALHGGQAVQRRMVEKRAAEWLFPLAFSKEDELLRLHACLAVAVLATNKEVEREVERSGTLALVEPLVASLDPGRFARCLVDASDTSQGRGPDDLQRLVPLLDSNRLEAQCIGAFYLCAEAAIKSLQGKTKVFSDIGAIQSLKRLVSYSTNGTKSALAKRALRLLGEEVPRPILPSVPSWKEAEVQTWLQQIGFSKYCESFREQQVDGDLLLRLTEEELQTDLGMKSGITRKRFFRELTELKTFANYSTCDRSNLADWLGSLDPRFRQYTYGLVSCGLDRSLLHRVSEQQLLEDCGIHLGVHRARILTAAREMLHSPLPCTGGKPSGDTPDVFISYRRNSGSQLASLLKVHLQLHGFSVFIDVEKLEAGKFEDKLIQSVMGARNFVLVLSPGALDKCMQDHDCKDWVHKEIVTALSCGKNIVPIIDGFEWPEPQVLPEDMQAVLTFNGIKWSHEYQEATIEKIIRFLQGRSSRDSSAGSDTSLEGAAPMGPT

NAD(+) hydrolase SARM1 [2] = target: T1, NAD(+) hydrolase SARM1; assay: Inhibition of recombinant human SARM1 TIR domain (561 to 724 residues) expressed in Escherichia coli C43 (DE3) cells lysates using ENAD as substrate preincubated for 20 mins followed by ENAD addition and measured at 15 sec interval for 15 mins

**Q.** Which results are given for `C[C@H]1c2cccc(O)c2C(=O)C2=C(O)[C@]3(O)C(=O)C(C(N)=O)=C(O)[C@@H](N(C)C)[C@@H]3[C@@H](O)[C@@H]21` [DOXYCYCLINE HYDROCHLORIDE]?
**A.** Ki (NAD(+) hydrolase SARM1 [1]): 280 µM; IC50 (NAD(+) hydrolase SARM1 [2]): 145 µM

**Q.** How did the IC50 (NAD(+) hydrolase SARM1 [2]) turn out when `Nc1ccc(/N=N/c2ccccc2)c(N)n1` [NC 150] was run?
**A.** 145 µM
